According to article PMC3657615 (Nature chemical biology, 2012):

How the values were obtained:
[1] = assay type: physicochemical
[2] = system: RSK1/2; experiment: Cellular RSK1/2 occupancy after inhibitor washout; assay type: cell-based; conditions: MDA-MB-231 cells, 1 μM inhibitor
[3] = system: RSK2-CTD-mediated autophosphorylation of Ser386; experiment: pS386 RSK inhibition in MDA-MB-231 cells; assay type: cell-based
[4] = Reaction with 10 mM glutathione; assay type: physicochemical
[5] = system: RSK1/2; experiment: Cellular RSK1/2 occupancy assay using FMK-BODIPY; assay type: cell-based; conditions: MDA-MB-231 cells

SMILES	reaction with BME, stability or reversibility of the adduct [1]	time to reappearance of inhibitor-free RSK1/2 after washout [2]	potency relative to CN-NHiPr in the autophosphorylation assay [3]	t1/2 of reaction with 10 mM glutathione [4] [h]	potency relative to CN-NHiPr in the cellular occupancy assay [5]
N#C/C=C/c1ccccc1 [Compound 2, cinnamonitrile]	stable thioether adducts				
Cc1ccc(-c2c(C(=O)CF)n(CCCO)c3ncnc(N)c23)cc1 [FMK]		at least 48 h	less potent than CN-NHiPr	16	less potent than CN-NHiPr
